Measured values taken from US10898595B2, “Core-satellite nanocomposites for MRI and photothermal therapy” (The Regents of the University of Michigan, priority 2013, dated 2021).

Tested on: SUM-159 tumors
Assay: In vivo PTT using IONP-IR820
Parameters: species or system mice
Conditions: 10 minutes
Experimental: Tumor-bearing nude mice were randomly allocated into three groups (five mice in each group) when the solid SUM-159 tumors had grown to ˜80 mm3. Mice in each group were intravenously injected with IONP-IR820 (20 mg Fe/Kg mouse body weight), the same amount of IR820, the same amount of IONPs. 24 h post injection, tumors were irradiated with a diode laser (λ=885 nm) at a laser power of 0.5 W for 10 minutes. The highest tumor surface temperature was recorded by an infrared camera (FLIR Systems, i7, Boston, Mass.) before and after application of the laser.
Mice were humanely euthanized by CO2 inhalation 24 h following a single I.V. bolus dose of nanoparticles. The harvested tissue was formalin-fixed, embedded in paraffin and sectioned. Unstained slides were dewaxed using xylene and rehydrated using graded alcohol. Rehydrated slides were stained with Hematoxylin and eosin (H&E staining) for visualization of nucleic acids and cytoplasm.

## CC1(C)C(=CC=C2CCCC(C=CC3=[N+](CCCCS(=O)(=O)[O-])c4ccc5ccccc5c4C3(C)C)=C2Cl)N(CCCCS(=O)(=O)[O-])c2ccc3ccccc3c21.[Na+] [IR820]
24 h post IV injection (20 mg Fe/Kg or same amount), 885 nm laser 0.5 W
  Tumor tissue hemorrhaging right after laser irradiation: does not have any obvious hemorrhaging
24 h post IV injection, laser 0.5 W, infrared camera
  Average temperature increase at the tumor site: 8.3±0.8 °C
